{"source": "paper PMC11943016", "about": "“TBG096 Ameliorates Memory Deficiency in AD Mouse Model via Promoting Neurogenesis and Regulation of Hsc70/HK2/PKM2/LAMP2A Signaling Pathway” (International Journal of Molecular Sciences, 2025)", "key": {"HFD-induced AD mice [1]": {"test_system": "HFD-induced AD mice", "experiment": "Behavioral tests (Y-maze, NOR, MWM) in HFD-induced AD mice", "assay_type": "in vivo", "excerpt": "(§1) In experiments with the HFD-induced AD mouse model, a total of 60 Institute of Cancer Research (ICR) male mice aged 4 weeks from Zhejiang Academy of Medical Sciences (Hangzhou, China) were used for animal experiments (permit number: ZJU20230121). The animals were provided free access to a chow diet and water. […] The HFD and normal diet were alternated every two days to maintain freshness. Weekly measurements were taken for water intake, food intake, and body weight. In the eighteenth week, the mice underwent Y-maze and NOR tests. The Morris water maze test was conducted during the nineteenth week. After confirming the successful establishment of the AD model characterized by cognitive impairment, oral administration of treatments commenced. […] Each group had 10 mice.\nThe Y-maze test is used to evaluate working memory, and the process was referenced in another report. In brief, the Y-maze consists of three black plastic arms (A, B, and C) with the same length (30 cm), width (10 cm), height (15 cm), and 120° relative to adjacent arms. Each mouse is placed facing the wall of arm A and allowed to explore the maze freely for 5 min. The behavior of mice is recorded with a video recorder, and the data are stored in ANY-MAZE software version 6.35 (Stoelting, Chicago, IL, USA). The total number of entries made by the mice into each arm—considered as either whole or half-body entries—is recorded. An alternation is defined as a mouse moving through all three arms without returning to the initial arm on the third visit. Alternation: number of alternations/(number of arm entries − 2) × 100%.\nThe NOR test is utilized to assess the working memory capabilities of mice. The NOR apparatus consists of an open, black plastic box, two identical objects, and one novel object. The activity of the mice within the open field is captured and recorded using a video recorder, with data subsequently stored in ANY-MAZE software. The test is conducted over a span of two days, incorporating habituation, training, and testing stages. During the habituation phase, the mice are placed in the box devoid of any objects, allowing them to explore freely for a duration of five min. Following a 24 h interval, the NOR test is administered, which consists of both the training and testing phases. In the training phase, each mouse is positioned in the central area of the box, where two identical objects are placed equidistant from the mouse. Each training session lasts for five minutes. After a one-hour break, one of the identical objects is replaced with a new, distinct object, and the exploration duration for each mouse is recorded. Exploration is defined by the time a mouse spends touching or sniffing an object. The exploration times during both the training and testing phases are documented via video recording, and the data are organized within ANY-MAZE software. The object recognition index was defined as follows: (time spent on the new object)/(time spent on the old object + time spent on the new object) × 100%. The data are calculated by ANY-MAZE software.\nThe MWM test is used to measure spatial memory and long-term memory. The whole MWM equipment includes a circular water tank (diameter 1.5 m, depth 50 cm) with warm water (22 ± 1 °C) 35 cm deep, a platform (diameter 14 cm, immersed 1 cm in water), a camera, and a computer for data analysis. The MWM test is conducted over five 5 days: 4 days for training and 1 day for testing. The pool is divided into four quadrants, and at least three quadrants are tested at a time. In the training stage, the mouse is placed on the wall of one of the four quadrants and allowed to swim and find the platform hidden underwater within 120 s. If the mouse cannot find the platform, the experimenter will guide it and let it stay on the platform for 10 s. The experiment lasts for 4 days. On the fifth day of the test phase, the platform is removed, and each mouse is placed in a similar starting position and allowed to move freely for 90 s. […]"}, "HFD-induced AD mice [2]": {"test_system": "HFD-induced AD mice", "experiment": "Immunofluorescence staining of brain tissue of HFD-induced AD mice", "assay_type": "in vivo", "excerpt": "as §1\nAt the end of animal experiments, three mice in each group were taken for heart perfusion with cold PBS and 4% paraformaldehyde. After that, the brains of mice were fixed with 4% paraformaldehyde for 24 h and gradually dehydrated with 15% and 30% sucrose solutions for 48 h, respectively. The fixed and embedded brain sample was placed in a cryostat and cut into 20 µm thick slices with a cryostat (Thermo Fisher, Waltham, MA, USA), and brain slices in the hippocampus and cortex were collected. Finally, the brain slices were placed in antifreeze (glycerol/ethylene/PBS = 3:3:4) and kept in a refrigerator at −30 °C until immunostaining. The brain slices were fixed on a glass slide and hydrated with PBS for 5 min. Then, blocking buffer was added to the brain slices and incubated at room temperature for 1 h. Brain slices were washed twice with PBS and incubated with anti-NeuN, anti-BrdU, anti-Iba1, anti-GFAP, anti-INOS, anti-APP, or anti-p-Tau at 4 °C for 24 h, respectively. Subsequently, the brain slices were incubated with secondary antibody (goat anti-rabbit IgG H&L (Alexa Fluor® 488) or rabbit anti-mouse IgG (Cy3 conjugate)) at room temperature for 2 h after washing with PBS three times. Finally, a cover glass was used to lightly cover the slices stained with DAPI. […] Biomarker proteins in the cerebral cortex and hippocampus were digitized by Image J software (National Institutes of Health, Bethesda, MD, USA)."}, "gut microbiota": {"test_system": "gut microbiota", "experiment": "Gut microbiota analysis in HFD-induced AD mice", "assay_type": "in vivo", "conditions": "Met 140 mg/kg", "excerpt": "as §1"}, "PC12 cells [3]": {"test_system": "PC12 cells", "experiment": "EdU cell proliferation in PC12 cells (inhibitor experiment)", "assay_type": "cell-based", "conditions": "VER155008 3 µM, NH4Cl 250 µM", "protocol": "In the inhibitor experiment of EdU cell proliferation activity, PC12 cells were seeded into each well of a 24-well plate as above for 24 h. Then, the medium in each well was replaced with 500 μL of serum-free […] containing VER155008 (inhibitor of Hsc70, 3 µM), or NH4Cl (inhibitor of lysosome, 250 µM) for 30 min according to the literature, and 500 μL of serum-free DMEM containing different samples was added and cultured for 24 h, respectively. After that, PC12 cells were treated with EdU for 2 h according to the operation steps of the BeyoClick™ EdU-488 cell proliferation detection kit (#C0071S, Beyotime Biotechnology, Shanghai, China). After cell labeling, the supernatant was removed. Then, PC12 cells were fixed, washed, and blocked, and the click reaction solution was added at room temperature for 30 min. After that, DAPI staining was performed for 10 min. Finally, PC12 cells were detected by fluorescence microscope (Olympus IX53, Tokyo, Japan)."}, "[4]": {"test_system": "Hsc70, LAMP2A, APP, PKM2, and HK2 proteins", "experiment": "Western blot of CMA proteins in PC12 cells (inhibitor experiment)", "assay_type": "cell-based", "conditions": "TBG096 1 µM, VER155008 3 µM, 4 h, vs control", "protocol": "(§2) In the inhibitor experiment of NGF-mimic activity, approximately 5 × 10^4 PC12 cells were seeded into each well of a 24-well plate and incubated for 24 h. After that, the medium in each well was replaced with 500 μL of serum-free DMEM or the serum-free DMEM containing VER155008, the inhibitor of Hsc70 protein, incubated in a CO2 incubator for 30 min. Subsequently, 500 μL of serum-free DMEM containing different samples was added and cultured, respectively. The PC12 cells with neurite outgrowth were recorded after 48 h. For the Western blot analysis, the experiment included five groups, namely the control (C) group, the NGF (40 ng/mL) group, the TBG096 (1 µM) group, the VER155008 (3 µM) group, and the VER155008 (3 µM) + TBG096 (1 µM) group. Afterwards, approximately 2 × 10^6 cells per dish were seeded into ten 6 cm Petri dishes with 5 mL of DMEM medium and incubated for 24 h. After giving different treatments with samples, the cells continued to culture for 4 h. Protein extraction was conducted to prepare for the subsequent Western blot analysis.\nApproximately 50 mg of cerebral cortex from brain tissues was homogenized in RIPA lysis buffer containing 1% protease inhibitor and 1% phosphatase inhibitor. Then, the sample was centrifuged at 12,000 rpm at 4 °C for 10 min, and the supernatant was transferred to a new tube. Protein concentrations were determined using the BCA kit, and 30 µg of protein from each sample was denatured by heating in water at 100 °C for 10 min. Subsequently, approximately 30 µg of protein from each sample was loaded into each well. After conducting gel electrophoresis at 80 V for 15 min and then at 120 V for 60 min, the proteins were transferred to the polyvinylidene fluoride (PVDF) membrane for 90 min. Then, the PVDF membrane was blocked with 5% skimmed milk at room temperature for 60 min. The membrane was incubated with a diluted primary antibody at 4 °C overnight. After washing the membrane three times with TBST buffer (1× TBS buffer containing 0.05% (v/v) tween 20), it was incubated with the secondary antibody for 1 h at room temperature. Finally, the strip was developed using chemiluminescence ECL reagent, and the blot density was quantified with ImageJ (National Institutes of Health, Bethesda, MD, USA)."}, "PC12 cells [5]": {"test_system": "PC12 cells", "experiment": "MTT assay, cytotoxicity in PC12 cells", "assay_type": "cell-based", "conditions": "10 µM", "protocol": "PC12 cells were firstly inoculated into a 24-well plate and cultured for 24 h. Following this, samples at different doses were added and cultured for 24 h. Subsequently, the 0.5 mL serum-free medium containing MTT (0.2 mg/mL) of each well was used to replace the original medium and incubated for 2 h. After removing the solution, the purple crystal was dissolved in 200 μL of DMSO, and the absorbance was measured at 570 nm. The cell survival rate for each group was calculated based on the control group."}, "PC12 cells [6]": {"test_system": "PC12 cells", "experiment": "NGF-mimic activity: neurite outgrowth in PC12 cells", "assay_type": "cell-based", "conditions": "0.3, 1, and 3 µM, 48 h", "protocol": "The neurogenic activity of samples was evaluated according to the methods described in our previous study. Briefly, approximately 5 × 10^4 cells were seeded in each well of a 24-well microplate and were cultured under a humidified atmosphere with 5% CO2 at 37 °C for 24 h. Then, the medium in each well was replaced with 1 mL of serum-free DMEM containing 40 ng/mL NGF as a positive control, 0.5% DMSO as a negative control, and the test sample after 24 h, respectively. About 100–200 cells of each well were counted from a randomly selected area and repeated thrice after 48 h. A cell-bearing neurite outgrowth longer than the diameter of the cell body was identified as a positive cell. The activity was presented as the percentage of positive cells in the selected area.\nas §2"}, "[7]": {"conditions": "cited from earlier work"}}}
{"compound": "CN(C)C(=N)N=C(N)N", "note": "[Met, Metformin, reference compound]", "values": [{"measurement": "number of arm entries, Y-maze test", "setting": "HFD-induced AD mice [1]; TBG096 0.1, 5, 20 mg/kg, Met 140 mg/kg, 54 days", "value": "No significant differences"}, {"measurement": "escape latency, MWM training phase", "setting": "HFD-induced AD mice [1]; fourth day, Met 140 mg/kg and all doses of TBG096", "value": "markedly reduced"}, {"measurement": "number of platform crossings, MWM test phase", "setting": "HFD-induced AD mice [1]; vs HFD-only group", "value": "increased significantly"}, {"measurement": "APP and phosphorylation Tau protein in the hippocampus", "setting": "HFD-induced AD mice [2]; immunofluorescence", "value": "reduction"}, {"measurement": "number of mature neurons (NeuN) in the cerebral cortex", "setting": "HFD-induced AD mice [2]; vs HFD-only group", "value": "increased numbers of mature neurons"}, {"measurement": "abundance of Firmicutes (decreased by HFD) and Bacteroidota (increased by HFD)", "setting": "gut microbiota; TBG096 20 mg/kg", "value": "reversed"}, {"measurement": "abundance of Ligilactobacillus", "setting": "gut microbiota; TBG096 5 and 20 mg/kg", "value": "improved"}]}
{"compound": "Cl.N", "note": "[NH4Cl]", "values": [{"measurement": "effect of inhibitor on the EdU cell proliferation activity of TBG096", "setting": "PC12 cells [3]", "value": "reverse the activity"}]}
{"compound": "N#Cc1ccc(COC[C@H]2O[C@@H](n3c(NCc4ccc(Cl)c(Cl)c4)nc4c(N)ncnc43)[C@H](O)[C@@H]2O)cc1", "note": "[VER155008, reference compound]", "values": [{"measurement": "APP protein expression", "setting": "[4]", "value": "significantly increased"}, {"measurement": "Hsc70 protein level", "setting": "[4]", "value": "significantly decreased"}, {"measurement": "LAMP2A protein level", "setting": "[4]", "value": "significantly increased"}, {"measurement": "PKM2 protein expression", "setting": "[4]", "value": "significantly increased"}, {"measurement": "effect of inhibitor on the EdU cell proliferation activity of TBG096", "setting": "PC12 cells [3]", "value": "reverse the activity"}]}
{"compound": "O=C(SCCCCCCCCSCCCC(F)(F)F)c1cccc(O)c1O", "note": "[compound 4]", "values": [{"measurement": "toxicity in PC12 cells (MTT)", "setting": "PC12 cells [5]", "value": "some level of toxicity"}, {"measurement": "percentage of PC12 cells exhibiting neurite growth", "setting": "PC12 cells [6]", "value": "superior activity"}]}
{"compound": "NGF: Nerve growth factor, the first recognized neurotrophic factor; positive control in PC12 assay", "values": [{"measurement": "BBB penetration", "setting": "[7]", "value": "cannot penetrate the BBB"}]}
